These compounds were tested against Human Factor D (Homo sapiens (Human), UniProt P00746) (assay: Human Factor D Assay). Details: Factor D inhibition, assay of Example 10; read-out: IC5 (Stars).
Human Factor D, sequence (P00746 26-253): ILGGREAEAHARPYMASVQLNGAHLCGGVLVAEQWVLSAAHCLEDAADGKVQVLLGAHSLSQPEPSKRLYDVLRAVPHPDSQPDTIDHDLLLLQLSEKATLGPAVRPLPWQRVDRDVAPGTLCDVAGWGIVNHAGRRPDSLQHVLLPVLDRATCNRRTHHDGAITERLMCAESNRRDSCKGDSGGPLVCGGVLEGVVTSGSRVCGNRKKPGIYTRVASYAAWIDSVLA
Format: biochemical
Method in brief: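 Serum-purified Factor D (80 nM final) preincubated 5 min at room temperature with compound in 50 mM Tris, 1 M NaCl, pH 7.5. Z-L-Lys-SBz and DTNB added at 100 μM each; A405 followed every 30 s for 30 min. IC50 from nonlinear regression of rates versus concentration.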
Work on `CC(=O)c1nn(CC(=O)N2[C@H](C(=O)Nc3nc(Br)ccc3CN3CC4CC3CO4)C[C@@]3(C)C[C@@H]23)c2cnc(-c3cnc(C)nc3)cc12` (stereo partly drawn) [Compound 277, (1R,3S,5R)-N-(3-(2-oxa-5-azabicyclo[2.2.1]heptan-5-ylmethyl)-6-bromopyridin-2-yl)-2-(2-(3-acetyl-5-(2-methylpyrimidin-5-yl)-1H-pyrazolo[3,4-c]pyridin-1-yl)acetyl)-5-methyl-2-azabicyclo[3.1.0]hexane-3-carboxamide] yielded an IC50 of less than 1 µM.
For `CC(=O)c1nn(CC(=O)N2[C@H](C(=O)Nc3nc(Br)ccc3C)C[C@@]3([C@H](O)CO)C[C@@H]23)c2cnc(-c3cnc(C)nc3)cc12` [Compound 282], the IC50 was less than 1 µM.
For `CC[C@@]12C[C@@H](C(=O)Nc3nc(Br)ccc3C)N(C(=O)Cn3nc(C(C)=O)c4cc(-c5cnc(C)nc5)ccc43)[C@@H]1C2` [Compound 286, (1R,3S,5R)-2-(2-(3-acetyl-5-(2-methylpyrimidin-5-yl)-1H-indazol-1-yl)acetyl)-N-(6-bromo-3-methylpyridin-2-yl)-5-ethyl-2-azabicyclo[3.1.0]hexane-3-carboxamide], the IC50 was less than 1 µM.
`CC(=O)c1nn(CC(=O)N2[C@H](C(=O)Nc3nc(Br)ccc3C)C[C@@]3(CCS(C)(=N)=O)C[C@@H]23)c2c(C)cc(-c3cnc(C)nc3)cc12` (stereo partly drawn) [Compound 287, (1R,3S,5R)-2-(2-(3-acetyl-7-methyl-5-(2-methylpyrimidin-5-yl)-1H-indazol-1-yl)acetyl)-N-(6-bromo-3-methylpyridin-2-yl)-5-(2-(S-methylsulfonimidoyl)ethyl)-2-azabicyclo[3.1.0]hexane-3-carboxamide] showed an IC50 of less than 1 µM.
Work on `CC(=O)c1nn(CC(=O)N2[C@H](C(=O)Nc3nc(Br)ccc3C)C[C@@]3(CCS(C)(=O)=O)C[C@@H]23)c2c(C)cc(-c3cnc(C)nc3)cc12` [Compound 288, (1R,3S,5R)-2-(2-(3-acetyl-7-methyl-5-(2-methylpyrimidin-5-yl)-1H-indazol-1-yl)acetyl)-N-(6-bromo-3-methylpyridin-2-yl)-5-(2-(methylsulfonyl)ethyl)-2-azabicyclo[3.1.0]hexane-3-carboxamide] yielded an IC50 of less than 1 µM.
`CC(=O)c1nn(CC(=O)N2[C@H](C(=O)Nc3nc(Br)ccc3CN3C(C)(C)COCC3(C)C)C[C@@]3(C)C[C@@H]23)c2cnc(-c3cnc(C)nc3)cc12` [Compound 289, (1R,3S,5R)-2-(2-(3-acetyl-5-(2-methylpyrimidin-5-yl)-1H-pyrazolo[3,4-c]pyridin-1-yl)acetyl)-N-(6-bromo-3-((3,3,5,5-tetramethylmorpholino)methyl)pyridin-2-yl)-5-methyl-2-azabicyclo[3.1.0]hexane-3-carboxamide] gave an IC50 of less than 1 µM.
`CC(=O)c1nn(CC(=O)N2[C@H](C(=O)Nc3nc(Br)ccc3C)C[C@@]3(CN4CCCC4)C[C@@H]23)c2c(C)cc(-c3cnc(C)nc3)cc12` [Compound 296, (1R,3S,5R)-2-(2-(3-acetyl-7-methyl-5-(2-methylpyrimidin-5-yl)-1H-indazol-1-yl)acetyl)-N-(6-bromo-3-methylpyridin-2-yl)-5-(pyrrolidin-1-ylmethyl)-2-azabicyclo[3.1.0]hexane-3-carboxamide] showed an IC50 of less than 1 µM.
`CC(=O)c1nn(CC(=O)N2[C@H](C(=O)Nc3nc(Br)ccc3C)C[C@@]3(CNC(C)C)C[C@@H]23)c2c(C)cc(-c3cnc(C)nc3)cc12` [Compound 297, (1R,3S,5R)-2-(2-(3-acetyl-7-methyl-5-(2-methylpyrimidin-5-yl)-1H-indazol-1-yl)acetyl)-N-(6-bromo-3-methylpyridin-2-yl)-5-((isopropylamino)methyl)-2-azabicyclo[3.1.0]hexane-3-carboxamide] gave an IC50 of less than 1 µM.
`COC(=O)[C@@H]1CCCN1C[C@@]12C[C@@H](C(=O)Nc3nc(Br)ccc3C)N(C(=O)Cn3nc(C(C)=O)c4cc(-c5cnc(C)nc5)cc(C)c43)[C@@H]1C2` [Compound 298, methyl (((1R,3S,5R)-2-(2-(3-acetyl-7-methyl-5-(2-methylpyrimidin-5-yl)-1H-indazol-1-yl)acetyl)-3-((6-bromo-3-methylpyridin-2-yl)carbamoyl)-2-azabicyclo[3.1.0]hexan-5-yl)methyl)-L-prolinate] showed an IC50 of less than 1 µM.
Work on `CC(=O)c1nn(CC(=O)N2[C@H](C(=O)Nc3nc(Br)ccc3C)C[C@@]3(CN4CCC[C@H]4C(=O)O)C[C@@H]23)c2c(C)cc(-c3cnc(C)nc3)cc12` [Compound 299, (((1R,3S,5R)-2-(2-(3-acetyl-7-methyl-5-(2-methylpyrimidin-5-yl)-1H-indazol-1-yl)acetyl)-3-((6-bromo-3-methylpyridin-2-yl)carbamoyl)-2-azabicyclo[3.1.0]hexan-5-yl)methyl)-L-proline] yielded an IC50 of less than 1 µM.
With `CC(=O)c1nn(CC(=O)N2[C@H](C(=O)Nc3nc(Br)ccc3C)C[C@@]3(CNC(C)(C)C)C[C@@H]23)c2c(C)cc(-c3cnc(C)nc3)cc12` [Compound 300, (1R,3S,5R)-2-(2-(3-acetyl-7-methyl-5-(2-methylpyrimidin-5-yl)-1H-indazol-1-yl)acetyl)-N-(6-bromo-3-methylpyridin-2-yl)-5-((tert-butylamino)methyl)-2-azabicyclo[3.1.0]hexane-3-carboxamide] the IC50 was less than 1 µM.
`CC(=O)c1nn(CC(=O)N2[C@H](C(=O)Nc3nc(Br)ccc3CN3C(C)(C)CCCC3(C)C)C[C@@]3(C)C[C@@H]23)c2ccc(-c3cnc(C)nc3)cc12` [Compound 302, (1R,3S,5R)-2-(2-(3-acetyl-5-(2-methylpyrimidin-5-yl)-1H-indazol-1-yl)acetyl)-N-(6-bromo-3-((2,2,6,6-tetramethylpiperidin-1-yl)methyl)pyridin-2-yl)-5-methyl-2-azabicyclo[3.1.0]hexane-3-carboxamide] gave an IC50 of less than 1 µM.
`CC(=O)c1nn(CC(=O)N2C[C@@](F)(Cn3ccnn3)C[C@H]2C(=O)Nc2nc(Br)ccc2C)c2ccc(-c3cnc(C)nc3)cc12` [Compound 304, (2S,4R)-4-((1H-1,2,3-triazol-1-yl)methyl)-1-(2-(3-acetyl-5-(2-methylpyrimidin-5-yl)-1H-indazol-1-yl)acetyl)-N-(6-bromo-3-methylpyridin-2-yl)-4-fluoropyrrolidine-2-carboxamide] was tested, and the IC50 was less than 1 µM.
`CC(=O)c1nn(CC(=O)N2[C@H](C(=O)Nc3nc(Br)ccc3C)C[C@@]3(CN4CCOCC4)C[C@@H]23)c2c(C)cc(-c3cnc(C)nc3)cc12` [Compound 305, (1R,3S,5R)-2-(2-(3-acetyl-7-methyl-5-(2-methylpyrimidin-5-yl)-1H-indazol-1-yl)acetyl)-N-(6-bromo-3-methylpyridin-2-yl)-5-(morpholinomethyl)-2-azabicyclo[3.1.0]hexane-3-carboxamide] gave an IC50 of less than 1 µM.
For `CC(=O)c1nn(CC(=O)N2[C@H](C(=O)Nc3nc(Br)ccc3C)C[C@@]3(CN4CCC(F)(F)CC4)C[C@@H]23)c2c(C)cc(-c3cnc(C)nc3)cc12` [Compound 306, (1R,3S,5R)-2-(2-(3-acetyl-7-methyl-5-(2-methylpyrimidin-5-yl)-1H-indazol-1-yl)acetyl)-N-(6-bromo-3-methylpyridin-2-yl)-5-((4,4-difluoropiperidin-1-yl)methyl)-2-azabicyclo[3.1.0]hexane-3-carboxamide], the IC50 was less than 1 µM.
`CC(=O)c1nn(CC(=O)N2[C@H](C(=O)Nc3nc(Br)ccc3C)C[C@@]3(CNC(C)(C)C)C[C@@H]23)c2ccc(-c3cnc(C)nc3)cc12` [Compound 307, (1R,3S,5R)-2-(2-(3-acetyl-5-(2-methylpyrimidin-5-yl)-1H-indazol-1-yl)acetyl)-N-(6-bromo-3-methylpyridin-2-yl)-5-((tert-butylamino)methyl)-2-azabicyclo[3.1.0]hexane-3-carboxamide] was tested, and the IC50 was less than 1 µM.
